Measured values published in US20240157020A1, “SUTURES” (The Queen's University of Belfast, priority 2021, published 2024).
In brackets after ≈: the same amount, converted by molar mass. Like-named read-outs stand apart in the source and are kept apart here.

Tests used:
Format in all cases: cell-based
S. aureus NCTC 10788 = experiment: MIC and MBC determination
Description: (§1) The antimicrobial activity of the THEDES was also assessed by determining the minimum inhibitory concentration (MIC) and the minimum bactericidal concentration (MBC) of MET, MA and the equimolar THEDES, respectively. Concentrations of 6 mg/mL MET, MA and MET-MA 1:1 were used to determine the MIC and MBC values against gram-positive bacteria E. faecalis, S. epidermidis and S. aureus, and gram-negative bacteria P. aeruginosa, E. coli and K. pneumoniae; results are shown in Table 4.

E. coli NCTC 8196 = experiment: MIC and MBC determination; conditions: Escherichia coli, NCTC8196
Description: as §1

P. aeruginosa NCTC 10783 = experiment: MIC and MBC determination; conditions: Pseudomonas aeruginosa, NCTC10783
Description: as §1

[1] = tested on: S. epidermidis ATCC 35984; experiment: MIC and MBC determination; conditions: Staphylococcus epidermidis, ATCC35984
Description: as §1

[2] = tested on: K. pneumoniae ATCC 700603; experiment: MIC and MBC determination; conditions: Klebsiella pneumoniae, ATCC700603
Description: as §1

P. aeruginosa ATCC 27853 = experiment: MIC and MBC determination; conditions: Pseudomonas aeruginosa, ATCC27853
Description: as §1

[3] = tested on: S. aureus NCTC 12493 (MRSA); experiment: MIC and MBC determination
Description: as §1

S. aureus ATCC 29213 = experiment: MIC and MBC determination
Description: as §1

E. faecalis ATCC 29212 = experiment: MIC and MBC determination; conditions: Enterococcus faecalis, ATCC29212
Description: as §1

Pseudomonas aeruginosa = experiment: Disc diffusion inhibition zone assay; conditions: gentamicin sulphate 10 mg/mL, THEDES neat, average n = 9 ± S.D.
[4] = tested on: Klebsiella pneumoniae ATCC 700603; experiment: Disc diffusion inhibition zone assay; conditions: gentamicin sulphate 10 mg/mL, THEDES neat, average n = 9 ± S.D.
Description: (§2) The disc diffusion assays were carried out against Staphylococcus aureus (FIG. 7, Gram-positive, frequently found in the upper respiratory tract and on the skin) and Klebsiella pneumoniae (FIG. 8, Gram-negative, facultative anaerobic, typically residing in human intestines and faeces). In general, the calculated inhibition zones of gentamicin sulphate (10 mg/mL) and the neat THEDES were very similar, confirming the antimicrobial activity of the THEDES against both gram-positive and gram-negative bacteria (Table 3).

[5] = tested on: Staphylococcus aureus NCTC 10788; experiment: Disc diffusion inhibition zone assay; conditions: gentamicin sulphate 10 mg/mL, THEDES neat, average n = 9 ± S.D.
Description: as §2

[6] = Staphylococcus aureus, NCTC10788, S. aureus NCTC 10788
[7] = Staphylococcus aureus, S. aureus NCTC 12493 (MRSA)
[8] = Staphylococcus aureus, ATCC29213, S. aureus ATCC 29213

| Compound | MBC (S. aureus NCTC 10788; [6]) | MBC (E. coli NCTC 8196) | MIC (E. coli NCTC 8196) | MBC (P. aeruginosa NCTC 10783) | MIC (P. aeruginosa NCTC 10783) | MBC [1] | MIC [1] | MBC [2] | MIC [2] | MBC (P. aeruginosa ATCC 27853) | MIC (P. aeruginosa ATCC 27853) | MBC [3, 7] | MBC (S. aureus ATCC 29213; [8]) | MBC (E. faecalis ATCC 29212) | MIC (E. faecalis ATCC 29212) | also measured |
| --- | --- | --- | --- | --- | --- | --- | --- | --- | --- | --- | --- | --- | --- | --- | --- | --- |
| O=C(O)/C=C\C(=O)O [MA, maleic acid] | > 6000 µg/mL | > 6000 µg/mL | 6000 µg/mL (≈ 51.7 mM) | > 6000 µg/mL | 6000 µg/mL (≈ 51.7 mM) | > 6000 µg/mL | 6000 µg/mL (≈ 51.7 mM) | > 6000 µg/mL | > 6000 µg/mL | > 6000 µg/mL | 6000 µg/mL (≈ 51.7 mM) | > 6000 µg/mL | > 6000 µg/mL | > 6000 µg/mL | 6000 µg/mL (≈ 51.7 mM) | MIC (S. aureus NCTC 10788; Staphylococcus aureus, NCTC10788, S. aureus NCTC 10788, read-out: MIC): 6000 µg/mL (≈ 51.7 mM); MIC ([3]; Staphylococcus aureus, S. aureus NCTC 12493 (MRSA), read-out: MIC): 6000 µg/mL (≈ 51.7 mM); MIC (S. aureus ATCC 29213; Staphylococcus aureus, ATCC29213, S. aureus ATCC 29213, read-out: MIC): 6000 µg/mL (≈ 51.7 mM) |
| Cc1ncc([N+](=O)[O-])n1CCO [MET, metronidazole] | > 6000 µg/mL | > 6000 µg/mL | > 6000 µg/mL | > 6000 µg/mL | > 6000 µg/mL | 3000 µg/mL (≈ 17.5 mM) | 3000 µg/mL (≈ 17.5 mM) | 6000 µg/mL (≈ 35.1 mM) | 6000 µg/mL (≈ 35.1 mM) | > 6000 µg/mL | > 6000 µg/mL | > 6000 µg/mL | > 6000 µg/mL | > 6000 µg/mL | > 6000 µg/mL | MIC (S. aureus NCTC 10788; S. aureus NCTC 10788): 6000 µg/mL (≈ 35.1 mM); MIC (S. aureus NCTC 10788; Staphylococcus aureus, NCTC10788, non-methicillin-resistant S. aureus strain, read-out: MIC): 6000 µg/mL (≈ 35.1 mM); MIC ([3]; S. aureus NCTC 12493 (MRSA)): >6000 µg/mL; MIC ([3]; Staphylococcus aureus, methicillin-resistant strain of S. aureus (MRSA), read-out: MIC): > 6000 µg/mL; MIC (S. aureus ATCC 29213; S. aureus ATCC 29213): 6000 µg/mL (≈ 35.1 mM); MIC (S. aureus ATCC 29213; Staphylococcus aureus, ATCC29213, non-methicillin-resistant S. aureus strain, read-out: MIC): 6000 µg/mL (≈ 35.1 mM) |
| gentamicin sulphate | – | – | – | – | – | – | – | – | – | – | – | – | – | – | – | ZOI Diameter (Pseudomonas aeruginosa): 26.04 ± 1.75 mm; ZOI Diameter [4]: 24.13 ± 1.09 mm; ZOI Diameter [5]: 46.09 ± 1.69 mm |
